Laboratory results: ChEMBL document CHEMBL4411307, “N,N'-diaryl-bishydrazones in a biphenyl platform: Broad spectrum antifungal agents” (Eur J Med Chem, 2019)
≈ marks a conversion by molar mass, not a printed value. Calls of active or inactive are those of the source. The rule behind the calls is not given here.

Columns and labels:
[1] = test system: Candida parapsilosis; assay: Antifungal activity against Candida parapsilosis ATCC 22019 measured after 48 hrs by CLSI M27-A3 protocol based method; format: functional; conditions: Lodderomyces parapsilosis, ATCC 22019, 48 h
[2] = Selectivity index, ratio of CC50 for human A549 cells to MIC for Candida krusei ATCC 6258; format: toxicity; conditions: read-out: Selectivity Index
[3] = test system: Listeria monocytogenes; assay: Antibacterial activity against Listeria monocytogenes; format: functional, organism-based
[4] = Selectivity index, ratio of CC50 for human A549 cells to MIC for Candida parapsilosis ATCC 22019; format: toxicity; conditions: read-out: Selectivity Index
[5] = Selectivity index, ratio of CC50 for human A549 cells to MIC for Aspergillus terreus ATCC MYA-3633; format: toxicity; conditions: read-out: Selectivity Index
[6] = test system: Candida albicans; assay: Antifungal activity against fluconazole/ITC-resistant Candida albicans ATCC MYA-1237 measured after 48 hrs by CLSI M27-A3 protocol based method; format: functional; conditions: ATCC MYA-1237, 48 h
[7] = Selectivity index, ratio of compound concentration showing <20 to <30% hemolysis in mouse RBC to MIC for Candida krusei ATCC 6258; format: toxicity; conditions: mouse red blood cells (RBC), read-out: Selectivity Index
[8] = Selectivity index, ratio of compound concentration showing <20 to <30% hemolysis in mouse RBC to MIC for Aspergillus terreus ATCC MYA-3633; format: toxicity; conditions: mouse red blood cells (RBC), read-out: Selectivity Index
[9] = Selectivity index, ratio of compound concentration showing <20 to <30% hemolysis in mouse RBC to MIC for Candida glabrata ATCC 2001; format: toxicity; conditions: mouse red blood cells (RBC), read-out: Selectivity Index
[10] = Selectivity index, ratio of CC50 for human A549 cells to MIC for fluconazole/ITC-resistant Candida albicans ATCC 10231; format: toxicity; conditions: read-out: Selectivity Index
[11] = test system: Candida albicans; assay: Antifungal activity against fluconazole/ITC-susceptible Candida albicans ATCC MYA-2876 measured after 48 hrs by CLSI M27-A3 protocol based method; format: functional; conditions: ATCC MYA-2876, 48 h
[12] = test system: BEAS-2B; assay: Cytotoxicity against human BEAS2B cells after 24 hrs by resazurin based assay; format: cell-based
[13] = Selectivity index, ratio of compound concentration showing <20 to <30% hemolysis in mouse RBC to MIC for Aspergillus nidulans ATCC 38163; format: toxicity; conditions: mouse red blood cells (RBC), read-out: Selectivity Index
[14] = Selectivity index, ratio of compound concentration showing <20 to <30% hemolysis in mouse RBC to MIC for fluconazole/ITC-resistant Candida albicans ATCC MYA-1237; format: toxicity; conditions: mouse red blood cells (RBC), read-out: Selectivity Index
[15] = Selectivity index, ratio of CC50 for human A549 cells to MIC for fluconazole/ITC-resistant Candida albicans ATCC 90819; format: toxicity; conditions: read-out: Selectivity Index
[16] = test system: A549; assay: Cytotoxicity against human A549 cells after 24 hrs by resazurin based assay; format: cell-based; conditions: a549, 24 h
[17] = Selectivity index, ratio of compound concentration showing <20 to <30% hemolysis in mouse RBC to MIC for fluconazole/ITC-susceptible Candida albicans ATCC MYA-2310; format: toxicity; conditions: mouse red blood cells (RBC), read-out: Selectivity Index
[18] = Selectivity index, ratio of compound concentration showing <20 to <30% hemolysis in mouse RBC to MIC for fluconazole/ITC-resistant Candida albicans ATCC 10231; format: toxicity; conditions: red blood cells (erythrocytes), read-out: Selectivity Index
[19] = test system: Pichia kudriavzevii; assay: Antifungal activity against Candida krusei ATCC 6258 measured after 48 hrs by CLSI M27-A3 protocol based method; format: functional; conditions: ATCC 6258, 48 h
[20] = Selectivity index, ratio of compound concentration showing <20 to <30% hemolysis in mouse RBC to MIC for fluconazole/ITC-resistant Candida albicans ATCC 90819; format: toxicity; conditions: red blood cells (erythrocytes), read-out: Selectivity Index
[21] = Hemolytic activity in mouse RBC at […] ug/ml after 1 hr relative to control; format: ADME, cell-based, Erythrocyte; conditions: red blood cells (erythrocytes), read-out: Activity
[22] = test system: Enterococcus; assay: Antibacterial activity against vancomycin-resistant Enterococcus; format: functional, organism-based
[23] = test system: Candida albicans; assay: Antifungal activity against fluconazole/ITC-resistant Candida albicans ATCC 64124 measured after 48 hrs by CLSI M27-A3 protocol based method; format: functional; conditions: ATCC 64124, 48 h
[24] = Selectivity index, ratio of CC50 for human A549 cells to MIC for fluconazole/ITC-resistant Candida albicans ATCC 64124; format: toxicity; conditions: read-out: Selectivity Index
[25] = Hemolytic activity in mouse RBC at 3.9 ug/ml after 1 hr relative to control; format: ADME, cell-based, Erythrocyte; conditions: red blood cells (erythrocytes), read-out: Activity
[26] = Selectivity index, ratio of CC50 for human A549 cells to MIC for Candida glabrata ATCC 2001; format: toxicity; conditions: read-out: Selectivity Index
[27] = Selectivity index, ratio of CC50 for human A549 cells to MIC for fluconazole/ITC-susceptible Candida albicans ATCC MYA-2310; format: toxicity; conditions: read-out: Selectivity Index
[28] = Selectivity index, ratio of CC50 for human A549 cells to MIC for fluconazole/ITC-resistant Candida albicans ATCC MYA-1237; format: toxicity; conditions: read-out: Selectivity Index
[29] = Selectivity index, ratio of compound concentration showing <20 to <30% hemolysis in mouse RBC to MIC for Candida parapsilosis ATCC 22019; format: toxicity; conditions: mouse red blood cells (RBC), read-out: Selectivity Index
[30] = Selectivity index, ratio of CC50 for human A549 cells to MIC for Aspergillus flavus ATCC MYA-3631; format: toxicity; conditions: read-out: Selectivity Index
[31] = target: Voltage-gated inwardly rectifying potassium channel KCNH2 (Homo sapiens, UniProt Q12809); assay: Inhibition of [3H]-dofetilide binding to human ERG expressed in HEK293 cell membranes measured after 1 hr by liquid scintillation counting method
[32] = Hemolytic activity in mouse RBC at 62.5 ug/ml after 1 hr relative to control; format: ADME, cell-based, Erythrocyte; conditions: red blood cells (erythrocytes), read-out: Activity
[33] = Hemolytic activity in mouse RBC at 1.95 ug/ml after 1 hr relative to control; format: ADME, cell-based, Erythrocyte; conditions: red blood cells (erythrocytes), read-out: Activity
[34] = test system: Aspergillus terreus; assay: Antifungal activity against Aspergillus terreus ATCC MYA-3633 measured after 48 hrs by CLSI M38-A2 protocol based method; format: functional; conditions: ATCC MYA-3633, 48 h
[35] = test system: Aspergillus nidulans; assay: Antifungal activity against Aspergillus nidulans ATCC 38163 measured after 48 hrs by CLSI M38-A2 protocol based method; format: functional; conditions: ATCC 38163, 48 h
[36] = Hemolytic activity in mouse RBC at […] after 1 hr relative to control; format: ADME, cell-based, Erythrocyte; conditions: red blood cells (erythrocytes), read-out: Activity; also: tested at 0.48 µg/mL
[37] = test system: Candida albicans; assay: Antifungal activity against fluconazole/ITC-resistant Candida albicans ATCC 90819 measured after 48 hrs by CLSI M27-A3 protocol based method; format: functional; conditions: ATCC 90819, 48 h
[38] = Selectivity index, ratio of CC50 for human A549 cells to MIC for Aspergillus nidulans ATCC 38163; format: toxicity; conditions: read-out: Selectivity Index
[39] = Hemolytic activity in mouse RBC at 7.8 ug/ml after 1 hr relative to control; format: ADME, cell-based, Erythrocyte; conditions: red blood cells (erythrocytes), read-out: Activity
[40] = Selectivity index, ratio of CC50 for human A549 cells to MIC for fluconazole/ITC-resistant Candida albicans ATCC MYA-1003; format: toxicity; conditions: read-out: Selectivity Index
[41] = test system: Aspergillus flavus; assay: Antifungal activity against Aspergillus flavus ATCC MYA-3631 measured after 48 hrs by CLSI M38-A2 protocol based method; format: functional; conditions: ATCC MYA-3631, 48 h
[42] = test system: Candida albicans; assay: Antifungal activity against fluconazole/ITC-resistant Candida albicans ATCC 10231 measured after 48 hrs by CLSI M27-A3 protocol based method; format: functional; conditions: ATCC 10231, 48 h
[43] = Selectivity index, ratio of CC50 for human A549 cells to MIC for fluconazole/ITC-susceptible Candida albicans ATCC MYA-2876; format: toxicity; conditions: read-out: Selectivity Index
[44] = Selectivity index, ratio of compound concentration showing <20 to <30% hemolysis in mouse RBC to MIC for fluconazole/ITC-resistant Candida albicans ATCC 64124; format: toxicity; conditions: red blood cells (erythrocytes), read-out: Selectivity Index
[45] = Selectivity index, ratio of compound concentration showing <20 to <30% hemolysis in mouse RBC to MIC for fluconazole/ITC-susceptible Candida albicans ATCC MYA-2876; format: toxicity; conditions: red blood cells (erythrocytes), read-out: Selectivity Index
[46] = test system: Staphylococcus aureus; assay: Antibacterial activity against methicillin-resistant Staphylococcus aureus; format: functional, organism-based
[47] = Hemolytic activity in mouse RBC at 31.3 ug/ml after 1 hr relative to control; format: ADME, cell-based, Erythrocyte; conditions: red blood cells (erythrocytes), read-out: Activity
[48] = Selectivity index, ratio of compound concentration showing <20 to <30% hemolysis in mouse RBC to MIC for Aspergillus flavus ATCC MYA-3631; format: toxicity; conditions: mouse red blood cells (RBC), read-out: Selectivity Index
[49] = Selectivity index, ratio of compound concentration showing <20 to <30% hemolysis in mouse RBC to MIC for fluconazole/ITC-resistant Candida albicans ATCC MYA-1003; format: toxicity; conditions: mouse red blood cells (RBC), read-out: Selectivity Index

Sequence of Voltage-gated inwardly rectifying potassium channel KCNH2 (Q12809 whole entry): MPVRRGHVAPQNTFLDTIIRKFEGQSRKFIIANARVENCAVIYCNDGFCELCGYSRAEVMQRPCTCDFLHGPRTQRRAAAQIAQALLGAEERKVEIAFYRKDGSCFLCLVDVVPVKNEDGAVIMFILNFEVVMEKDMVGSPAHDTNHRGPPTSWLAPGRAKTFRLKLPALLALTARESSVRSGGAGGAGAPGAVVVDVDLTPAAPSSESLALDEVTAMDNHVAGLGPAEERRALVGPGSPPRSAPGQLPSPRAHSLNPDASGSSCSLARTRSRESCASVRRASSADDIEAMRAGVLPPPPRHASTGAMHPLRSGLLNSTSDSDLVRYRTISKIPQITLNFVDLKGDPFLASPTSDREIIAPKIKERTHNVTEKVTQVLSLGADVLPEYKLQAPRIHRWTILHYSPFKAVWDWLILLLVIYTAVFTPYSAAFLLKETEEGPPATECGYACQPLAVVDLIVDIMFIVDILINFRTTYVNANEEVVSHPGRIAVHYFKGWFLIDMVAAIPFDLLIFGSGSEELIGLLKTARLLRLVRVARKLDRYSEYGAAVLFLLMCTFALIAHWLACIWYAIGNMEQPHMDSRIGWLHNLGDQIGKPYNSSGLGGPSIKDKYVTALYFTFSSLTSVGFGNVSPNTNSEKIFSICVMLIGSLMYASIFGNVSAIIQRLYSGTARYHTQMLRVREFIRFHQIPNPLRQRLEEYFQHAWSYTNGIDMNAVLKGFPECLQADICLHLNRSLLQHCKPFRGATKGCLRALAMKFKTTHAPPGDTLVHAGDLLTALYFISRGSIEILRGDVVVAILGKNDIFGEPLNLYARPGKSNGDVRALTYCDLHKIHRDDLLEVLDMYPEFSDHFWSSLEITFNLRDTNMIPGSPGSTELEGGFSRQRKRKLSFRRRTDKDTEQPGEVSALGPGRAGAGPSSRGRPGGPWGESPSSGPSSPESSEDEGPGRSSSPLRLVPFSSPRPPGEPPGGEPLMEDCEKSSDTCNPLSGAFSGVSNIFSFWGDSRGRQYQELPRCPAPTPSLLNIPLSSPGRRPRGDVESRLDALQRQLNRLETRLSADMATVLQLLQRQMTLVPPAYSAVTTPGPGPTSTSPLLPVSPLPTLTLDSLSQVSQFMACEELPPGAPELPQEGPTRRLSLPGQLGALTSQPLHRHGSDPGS

In the case of COc1ccc(N/N=C/c2ccc(-c3cccc(/C=N/Nc4ccc(OC)cc4)c3)cc2)cc1, the MIC [1] is reported as over 31.3 µg/mL, the selectivity ratio [2] is reported as 4.7 and the Activity [3] is reported as “inactive”. For the same molecule, the selectivity ratio [4] was 0.6, the selectivity ratio [5] was 0.6 and the MIC [6] was 3.9 µg/mL (≈ 8.66 µM). For the same molecule, the selectivity ratio [7] was 1 to 32, the selectivity ratio [8] was 1 to 32 and the selectivity ratio [9] was 1 to 32. It also gave a selectivity ratio [10] of 9.3, an MIC [11] of 3.9 µg/mL (≈ 8.66 µM) and a CC50 [12] of 14.1 µg/mL (≈ 31.3 µM). The selectivity ratio [13] was 1 to 32, the selectivity ratio [14] was 1 to 32 and the selectivity ratio [15] was 4.7. It also gave a CC50 [16] of 18.2 µg/mL (≈ 40.4 µM), a selectivity ratio [17] of 1 to 32 and a selectivity ratio [18] of 1 to 32. For the same molecule, the MIC [19] was 3.9 µg/mL (≈ 8.66 µM), the selectivity ratio [20] was 1 to 32 and the hemolysis at 1 h, 15.6 ug/ml ([21]; at 15.6 µg/mL) was 7.8%. For the same molecule, the hemolysis at 1 h, 0.975 ug/ml [21] was 2.6%, the Activity [22] was “inactive” and the MIC [23] was 15.6 µg/mL (≈ 34.6 µM). It also gave a selectivity ratio [24] of 1.2, a hemolysis at 1 h, 3.9 ug/ml [25] of 3% and a selectivity ratio [26] of 2.3. It also gave a selectivity ratio [27] of 2.3, a selectivity ratio [28] of 4.7 and a selectivity ratio [29] of 1 to 32. The selectivity ratio [30] was 0.6, the IC50 [31] was over 30 µM and the hemolysis at 1 h, 62.5 ug/ml [32] was 18.8%. It also gave a hemolysis at 1 h, 1.95 ug/ml [33] of 4.5%, an MIC [34] of over 31.3 µg/mL and an MIC [35] of 31.3 µg/mL (≈ 69.5 µM). For the same molecule, the hemolysis at 1 h, […] [36] was 0%, the MIC [37] was 3.9 µg/mL (≈ 8.66 µM) and the selectivity ratio [38] was 0.6. The hemolysis at 1 h, 7.8 ug/ml [39] was 2.6%, the selectivity ratio [40] was 2.3 and the MIC [41] was over 31.3 µg/mL. It also gave an MIC [42] of 1.95 µg/mL (≈ 4.33 µM), a selectivity ratio [43] of 4.7 and a selectivity ratio [44] of 1 to 32. The selectivity ratio [45] was 1 to 32, the Activity [46] was “inactive” and the hemolysis at 1 h, 31.3 ug/ml [47] was 9.6%. For the same molecule, the selectivity ratio [48] was 1 to 32 and the selectivity ratio [49] was 1 to 32.
